# Experimental data: PubChem BioAssay AID2060497 (Molecular Pharmacology Branch, DTP, NCI, 2025)
# Tested on: 317291-083-R-J1-PDC complex spheroids, viability
# Test: Anticancer human tumor 317291-083-R-J1-PDC patient-derived soft tissue sarcoma cell line growth inhibition [GQUAD]
# Conditions: for IC50: curve of first compound; for viability, T/C: stronger effect = lower value
# Method in brief: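 Tumor cells were grown as complex spheroids with HUVEC endothelial cells and mesenchymal stem cells as stroma. G-quadruplex stabilizers were combined with targeted agents over half-log dilutions from near the clinical Cmax, or from 10 microM.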
# [1] = second compound 0.0316 µM, first compound 0.0316 µM
# [2] = second compound 0.0316 µM, first compound 0.1 µM
# [3] = second compound 0.0316 µM, first compound 0.316 µM
# [4] = second compound 0.0316 µM, first compound 1 µM
# [5] = second compound 0.0316 µM, first compound 3.16 µM
# [6] = second compound 0.0316 µM, first compound 10 µM
# [7] = second compound 0.1 µM, first compound 0.0316 µM
# [8] = second compound 0.1 µM, first compound 0.1 µM
# [9] = second compound 0.1 µM, first compound 0.316 µM
# [10] = second compound 0.1 µM, first compound 1 µM
# [11] = second compound 0.1 µM, first compound 3.16 µM
# [12] = second compound 0.1 µM, first compound 10 µM
# [13] = second compound 0.316 µM, first compound 0.0316 µM
# [14] = second compound 0.316 µM, first compound 0.1 µM
# [15] = second compound 0.316 µM, first compound 0.316 µM
# [16] = second compound 0.316 µM, first compound 1 µM
# [17] = second compound 0.316 µM, first compound 3.16 µM
# [18] = second compound 0.316 µM, first compound 10 µM
# [19] = second compound 1 µM, first compound 0.0316 µM
# [20] = second compound 1 µM, first compound 0.1 µM
# [21] = second compound 1 µM, first compound 0.316 µM
# [22] = second compound 1 µM, first compound 1 µM
# [23] = second compound 1 µM, first compound 3.16 µM
# [24] = second compound 1 µM, first compound 10 µM
# [25] = second compound 3.16 µM, first compound 0.0316 µM
# [26] = second compound 3.16 µM, first compound 0.1 µM
# [27] = second compound 3.16 µM, first compound 0.316 µM
# [28] = second compound 3.16 µM, first compound 1 µM
# [29] = second compound 3.16 µM, first compound 3.16 µM
# [30] = second compound 3.16 µM, first compound 10 µM
# [31] = second compound 10 µM, first compound 0.0316 µM
# [32] = second compound 10 µM, first compound 0.1 µM
# [33] = second compound 10 µM, first compound 0.316 µM
# [34] = second compound 10 µM, first compound 1 µM
# [35] = second compound 10 µM, first compound 3.16 µM
# [36] = second compound 10 µM, first compound 10 µM
# 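Further: spheroids exposed to compounds for one week before readout.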
# 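Wherever viability, T/C is given: percent viability relative to DMSO vehicle wells taken as 100%.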
smiles,measurement,setting,value
CC1COCCN1c1cc(C2(S(C)(=N)=O)CC2)nc(-c2ccnc3[nH]ccc23)n1 (stereo not drawn) + Cc1cnc(CNC(=O)c2c(=O)c3ccc(N4CCCN(C)CC4)nc3n3c2sc2ccccc23)cn1,IC50,second compound 0.0316 µM,1280 nM
same,IC50,second compound 0.1 µM,493 nM
same,IC50,second compound 0.316 µM,< 31.6 nM
same,IC50,second compound 1 µM,< 31.6 nM
same,IC50,second compound 3.16 µM,< 31.6 nM
same,IC50,second compound 10 µM,< 31.6 nM
same,"viability, T/C",[1],97.2%
same,"viability, T/C",[2],99.6%
same,"viability, T/C",[3],69.2%
same,"viability, T/C",[4],67.6%
same,"viability, T/C",[5],19%
same,"viability, T/C",[6],10.4%
same,"viability, T/C",[7],66.2%
same,"viability, T/C",[8],111%
same,"viability, T/C",[9],64.6%
same,"viability, T/C",[10],34.4%
same,"viability, T/C",[11],22.5%
same,"viability, T/C",[12],23.2%
same,"viability, T/C",[13],44%
same,"viability, T/C",[14],42.2%
same,"viability, T/C",[15],42.8%
same,"viability, T/C",[16],35%
same,"viability, T/C",[17],12.2%
same,"viability, T/C",[18],18.2%
same,"viability, T/C",[19],34.8%
same,"viability, T/C",[20],60.1%
same,"viability, T/C",[21],32.2%
same,"viability, T/C",[22],20.8%
same,"viability, T/C",[23],25.3%
same,"viability, T/C",[24],14.8%
same,"viability, T/C",[25],16.2%
same,"viability, T/C",[26],22.4%
same,"viability, T/C",[27],18%
same,"viability, T/C",[28],26.7%
same,"viability, T/C",[29],15.4%
same,"viability, T/C",[30],14.6%
same,"viability, T/C",[31],39.2%
same,"viability, T/C",[32],19.8%
same,"viability, T/C",[33],46.7%
same,"viability, T/C",[34],9.84%
same,"viability, T/C",[35],20.8%
same,"viability, T/C",[36],9.87%
COc1cccc2c1C(=O)c1c(O)c3c(c(O)c1C2=O)CC(O)(C(=O)CO)CC3OC1CC(N)C(O)C(C)O1 (stereo not drawn) + Cc1cnc(CNC(=O)c2c(=O)c3ccc(N4CCCN(C)CC4)nc3n3c2sc2ccccc23)cn1,IC50,second compound 0.0316 µM,72.5 nM
same,IC50,second compound 0.1 µM,47.1 nM
same,IC50,second compound 0.316 µM,< 31.6 nM
same,IC50,second compound 1 µM,< 31.6 nM
same,IC50,second compound 3.16 µM,< 31.6 nM
same,IC50,second compound 10 µM,< 31.6 nM
same,"viability, T/C",[1],84%
same,"viability, T/C",[2],34%
same,"viability, T/C",[3],21.1%
same,"viability, T/C",[4],10.7%
same,"viability, T/C",[5],1.84%
same,"viability, T/C",[6],4.21%
same,"viability, T/C",[7],62.7%
same,"viability, T/C",[8],24%
same,"viability, T/C",[9],18.2%
same,"viability, T/C",[10],8.39%
same,"viability, T/C",[11],3.34%
same,"viability, T/C",[12],2.66%
same,"viability, T/C",[13],45.8%
same,"viability, T/C",[14],35%
same,"viability, T/C",[15],22.1%
same,"viability, T/C",[16],6.47%
same,"viability, T/C",[17],2.05%
same,"viability, T/C",[18],2.05%
same,"viability, T/C",[19],38.1%
same,"viability, T/C",[20],18.4%
same,"viability, T/C",[21],15.9%
same,"viability, T/C",[22],12.2%
same,"viability, T/C",[23],1.05%
same,"viability, T/C",[24],1.27%
same,"viability, T/C",[25],18.5%
same,"viability, T/C",[26],15.8%
same,"viability, T/C",[27],11.6%
same,"viability, T/C",[28],0.53%
same,"viability, T/C",[29],0.36%
same,"viability, T/C",[30],1.14%
same,"viability, T/C",[31],16.5%
same,"viability, T/C",[32],15.6%
same,"viability, T/C",[33],20.6%
same,"viability, T/C",[34],20.7%
same,"viability, T/C",[35],0.34%
same,"viability, T/C",[36],0.34%
C=CCn1c(=O)c2cnc(Nc3ccc(N4CCN(C)CC4)cc3)nc2n1-c1cccc(C(C)(C)O)n1 + Cc1cnc(CNC(=O)c2c(=O)c3ccc(N4CCCN(C)CC4)nc3n3c2sc2ccccc23)cn1,IC50,second compound 0.0316 µM,171 nM
same,IC50,second compound 0.1 µM,64.7 nM
same,IC50,second compound 0.316 µM,< 31.6 nM
same,IC50,second compound 1 µM,< 31.6 nM
same,IC50,second compound 3.16 µM,< 31.6 nM
same,IC50,second compound 10 µM,< 31.6 nM
same,"viability, T/C",[1],79.7%
same,"viability, T/C",[2],65.5%
same,"viability, T/C",[3],31.2%
same,"viability, T/C",[4],28.8%
same,"viability, T/C",[5],17.8%
same,"viability, T/C",[6],17.2%
same,"viability, T/C",[7],57.3%
same,"viability, T/C",[8],45.4%
same,"viability, T/C",[9],30.3%
same,"viability, T/C",[10],19.9%
same,"viability, T/C",[11],14.6%
same,"viability, T/C",[12],14.8%
same,"viability, T/C",[13],43.2%
same,"viability, T/C",[14],27.5%
same,"viability, T/C",[15],22.6%
same,"viability, T/C",[16],20.9%
same,"viability, T/C",[17],12%
same,"viability, T/C",[18],17.6%
same,"viability, T/C",[19],27.7%
same,"viability, T/C",[20],30.3%
same,"viability, T/C",[21],24.6%
same,"viability, T/C",[22],15.1%
same,"viability, T/C",[23],8.69%
same,"viability, T/C",[24],8.16%
same,"viability, T/C",[25],15.6%
same,"viability, T/C",[26],13%
same,"viability, T/C",[27],19.1%
same,"viability, T/C",[28],4.5%
same,"viability, T/C",[29],4.07%
same,"viability, T/C",[30],2.45%
same,"viability, T/C",[31],0.13%
same,"viability, T/C",[32],0.27%
same,"viability, T/C",[33],0.18%
same,"viability, T/C",[34],1.89%
same,"viability, T/C",[35],0.2%
same,"viability, T/C",[36],0.61%
CC(C)(O)C1CCC(Nc2ccc3ncc(-c4cccc(C(F)(F)F)c4)n3n2)CC1 (stereo not drawn) + Cc1[nH]c2ccc(F)cc2c1-c1nc2c3cccnc3c3ncccc3c2[nH]1,IC50,second compound 0.0316 µM,647 nM
same,IC50,second compound 0.1 µM,576 nM
same,IC50,second compound 0.316 µM,421 nM
same,IC50,second compound 1 µM,114 nM
same,IC50,second compound 3.16 µM,< 31.6 nM
same,IC50,second compound 10 µM,< 31.6 nM
same,"viability, T/C",[1],102%
same,"viability, T/C",[2],102%
same,"viability, T/C",[3],85.9%
same,"viability, T/C",[4],28.2%
same,"viability, T/C",[5],0.62%
same,"viability, T/C",[6],0.37%
same,"viability, T/C",[7],91%
same,"viability, T/C",[8],85%
same,"viability, T/C",[9],77.1%
same,"viability, T/C",[10],25.4%
same,"viability, T/C",[11],0.16%
same,"viability, T/C",[12],0.74%
same,"viability, T/C",[13],61.8%
same,"viability, T/C",[14],70.9%
same,"viability, T/C",[15],61.6%
same,"viability, T/C",[16],14.3%
same,"viability, T/C",[17],0.22%
same,"viability, T/C",[18],0.17%
same,"viability, T/C",[19],58.1%
same,"viability, T/C",[20],43%
same,"viability, T/C",[21],45.1%
same,"viability, T/C",[22],8.74%
same,"viability, T/C",[23],0.32%
same,"viability, T/C",[24],0.16%
same,"viability, T/C",[25],29.5%
same,"viability, T/C",[26],19.8%
same,"viability, T/C",[27],24.1%
same,"viability, T/C",[28],7.5%
same,"viability, T/C",[29],0.94%
same,"viability, T/C",[30],0.2%
same,"viability, T/C",[31],41%
same,"viability, T/C",[32],38.6%
same,"viability, T/C",[33],44.5%
same,"viability, T/C",[34],14.2%
same,"viability, T/C",[35],0.55%
same,"viability, T/C",[36],0.82%
